The values below come from article PMC5764437, “Discovery of novel, orally bioavailable, antileishmanial compounds using phenotypic screening” (PLoS Neglected Tropical Diseases, 2017).

“Also recorded” adds a separate entry of the source. Like-named read-outs stand apart in the source and are kept apart here.

Data set [1] in a line: Parallel Artificial Membrane Permeability Assay (PAMPA). Particulars: pH 7.4. The method, then:
Parallel Artificial Membrane Permeability Assay (PAMPA) was conducted by Biomek FX lab automation workstation (Beckman Coulter, Inc.) and PAMPA evolution 96 command software (pION Inc.). A 3 µL aliquot of […] test compound stock in DMSO was mixed with 597 µL of isotonic citrate phosphate buffered saline to make diluted test compound. Diluted test compound (150 µL) was transferred to a UV plate (pION Inc.) and the UV spectrum was read as the reference plate. The membrane on a pre-loaded PAMPA sandwich (pION Inc.) was painted with 4 µL GIT lipid (pION Inc.). The acceptor chamber was then filled with 200 µL acceptor solution buffer, (pION Inc.), and the donor chamber was filled with 180 µL diluted test compound. The PAMPA sandwich was assembled, placed on the Gut-Box and stirred for 30 min. The Aqueous Boundary Layer was set to 40 µm for stirring. The UV spectrum (250-500 nm) of the donor and the acceptor solutions were recorded. The permeability coefficient was calculated using PAMPA Evolution 96 Command software (pION Inc.) based on the AUC of the reference plate, the donor plate and the acceptor plate. All compounds were tested in triplicate.

Data set [2] deals with J774A.1 macrophages. Put plainly: Cytotoxicity to J774A.1 macrophages (dose-response). It is filed as cell-based. Conditions: for EC50: Mus musculus, J774.A1, host macrophage, tested up to 10 μM, mean ± standard deviation, n = 2, read-out: J774A.1 EC50. The method, then:
Cytotoxicity of compounds to J774.A1 macrophages was determined by dose-response curves as described previously. In the absence of growth inhibitors or DMSO, the macrophages increased in number ~6-fold over 96 h in Minimum Essential Medium, employed for both macrophage infections and the toxicity assays.

Data set [3] concerns Trypanosoma cruzi CL Brener epimastigotes. Put plainly: Growth inhibition of Trypanosoma cruzi epimastigotes (SYBR Green). It counts as cell-based. Conditions: 72 h, 10 μM to 1 nM. The method, then: Trypanosoma cruzi CL Brener epimastigotes were obtained from Dr. Fred Buckner of the Department of Medicine at the University of Washington. T. cruzi epimastigotes were grown in liver infusion tryptose medium and seeded in a 96-well plate at 10^5 epimastigotes per well in 100 μl medium. For each well, 1 μl of compound in DMSO at 100X the desired final concentration was added. Epimastigotes were exposed to a range of compound concentrations from 10 μM to 1 nM to determine EC50. Plates were incubated at 26°C for 72 h, then 10 μl 50X SYBR Green in 1% Triton X-100 was added to each well followed by incubation with shaking at room temperature for 30 minutes. Fluorescence was read (excitation 485nm, emission 535nm) with the Victor^2 multiplate reader (PerkinElmer). All data processing and visualization were performed using GraphPad Prism 6 software.

Data set [4] is described as follows: Dose-ranging tolerability / 10-day toxicity study in mice. It counts as in vivo, mouse. Particulars: oral, 30 mg/kg.
Data set [5] in a line: Mouse plasma protein binding assay (Rapid Equilibrium Dialysis). Particulars: mouse, mouse plasma, pH 7.4; for fraction unbound at 4 h, 0.8 μM: Conc. 0.8 μM; for fraction unbound at 4 h, 4 μM: Conc. 4 μM; for fraction unbound at 4 h, 20 μM: Conc. 20 μM. It counts as in vitro ADME. The procedure: (§1) A Rapid Equilibrium Dialysis (RED) Plate (Thermo Scientific, catalog #, PI-90007) was used to determine the percentage of compound binding to mouse plasma proteins (Thermo Scientific, catalog #, 50642085). The positive control for this experiment was propranolol HCl (295.807 g/mol) and the internal standard was warfarin in methanol (2 μM). 10 mM stocks of compound in DMSO were diluted with DMSO and acetonitrile to three different intermediate concentrations: high (2 mM), medium (0.4 mM) and low (0.08 mM) concentration in DMSO:acetonitrile (1:4, v:v). 10 mM stock of propranolol in DMSO were diluted to 0.4 mM concentration in DMSO:acetonitrile (1:4 v:v).
(§2) In 10 Eppendorf tubes, the control (10 μL) or each of three compound dilutions (10 μL) were each added to separate aliquots of 990 μL mouse plasma. Potassium phosphate buffer (500 μL, 0.1 M, pH 7.4, 37 °C) was placed in every white well of the RED plate and each plasma/compound mixture was added to each of 3 RED wells (300 μL). The RED plate holds triplicate samples of one control (final concentration […]) and one compound (final concentrations: 20 μM, 4 μM, […]). The RED Plate was sealed and incubated at 37 °C shaking at 250 rpm for 4 hours. After incubation, aliquots (50 μL) from each well in the RED plate were transferred to an assay plate (pION Inc., MA, #110323). In order to create a uniform matrix in every well of the assay plate, plasma (50 μL) was added to each of the wells that already contained buffer and potassium phosphate buffer (50 μL) was added to each of the wells that already contained plasma/compound. Pre-cooled internal standard (300 μL) was added to the assay plate to quench the reaction. The quenched plate was then centrifuged (5810R, Eppendorf, Westbury, NY) at 3000 rpm for 20 minutes.
(§3) The percentage of free compound [1] and bound compound [2] was calculated usng the AUC ratio of compound to warfarin from the SIR spectra. For reporting data, % Free = Concentration buffer/Concentration plasma *100 %, and % Bound = 100% - % Free.

Data set [6] deals with mouse plasma proteins. The description is as above. Conditions: across tested concentrations. It counts as in vitro ADME. The procedure:
as §1, §2, §3

For data set [7], the system named is bloodstream form Lister 427 T. brucei. On the set-up: method as in PMID 23484493. Particulars: bloodstream form of Trypanosoma brucei; read-out: T. brucei bloodstream form EC50 (previously reported); cited from earlier work.
For data set [8], the system named is Caco-2 cells. Put plainly: Caco-2 permeability assay. It counts as in vitro ADME. Conditions: predicted from solubility and membrane permeability.
In data set [9] the test system is bloodstream form Lister 427 T. brucei. Put plainly: Growth inhibition of T. brucei bloodstream forms (SYBR Green I). It is filed as cell-based. Particulars: Trypanosoma brucei, bloodstream form; mean ± standard deviation, n = 2; read-out: T. brucei EC50. The method, then: L. mexicana (MNYZ/BZ/62/M379) or L. donovani (LdBob strain) parasites expressing the Renilla luciferase gene from a rRNA gene locus were used to infect J774A.1 macrophages. Growth of intracellular amastigotes was measured using a luminescence assay, as detailed previously. The growth inhibitor activities of compounds were tested against bloodstream form Lister 427 T. brucei in 96-well plates containing 1 X 10^5 parasites per well in 0.2 ml HMI-11 medium (Gibco/Thermo Fisher). Compounds (2 μl volumes in DMSO) were added to the parasites using serial 3-fold dilutions to cover a range of concentrations from about 10 μM to 1 nM. After 48 h incubation at 37°C under a humidified 5% CO2 atmosphere, 10 μl of 10% Triton X-100 and 100 X stock SYBR Green I (Sigma-Aldrich) in PBS was added and florescence measured (excitation 497 nm; emission 520 nm) after 1 h incubation in the dark using a Spectra Max Gemini XPS fluorimeter (Molecular Devices). Data were log transformed and EC50 values were determined using GraphPad Prism 6 (GraphPad Software). In the absence of growth inhibiting compounds, the parasites grew from an initial density of 5 X 10^5 cells/mL to ~3 X 10^6 cells/mL.

On to `Cc1ccc(-c2nc3ccccc3s2)cc1NC(=O)c1cc([N+](=O)[O-])c(N2CCN(C)CC2)cc1Cl` [Compound 5], for which the Papp at 30 min, 0.05 µM in [1] stood at 237 ×10⁻⁶ cm/s. Besides, the EC50 in data set [2] is 1100 ± 800 nM; in [3] (Trypanosoma cruzi, read-out: T. cruzi epimastigotes EC50), 86 ± 30 nM; in [7], 27 nM. Moreover, in [4], the “Tolerability (weight loss, appetite, other toxicity)” value is “suppressed appetite was resolved by dose reduction to 30 mg/kg; also recorded: No weight loss or other toxicity was observed”. In addition, in [5], the fraction unbound at 4 h, 0.8 μM is 0.65. The free fraction (fraction unbound) at 4 h, 4 μM in data set [5] was 0.591. This compound gave an unbound share (fraction unbound) at 4 h, 20 μM in [5] of 0.586. In [6], the “Binding to mouse plasma proteins” value is given as < 50%.

`COc1ccc(-c2c(C(F)(F)F)oc3c(CN4CCN(C)CC4)c(O)ccc3c2=O)cc1OC` [Compound 4] returned a Papp at 30 min, 0.05 µM in data set [1] of 375 ×10⁻⁶ cm/s. The concentration for a half-maximal effect (EC50) in [2] was > 10000 nM. Besides, the “Reduction in viability / inhibition of host macrophage J774A.1 in dose-response studies” value in [2] (up to 10 μM) is listed as “no reduction in viability; also recorded: no inhibition of J774A.1 macrophages up to 10 μM concentration”. Moreover, the “T. cruzi epimastigotes EC50” value in [3] is listed as “no inhibition”. In data set [5], this compound showed a fraction unbound at 4 h, 0.8 μM of 0.54; a fraction unbound at 4 h, 4 μM of 0.599; an unbound share (fraction unbound) at 4 h, 20 μM of 0.534. Further, the “Binding to mouse plasma proteins” value in data set [6] was < 50%. In addition, in data set [8], the “Predicted absorption across the intestinal epithelium” value is reported as ~ 85%. In addition, in data set [9], the concentration giving a half-maximal response (EC50) worked out at 11000 ± 1000 nM.
